Reference: ChEMBL document CHEMBL3046425, “Synthesis of Antifungal 2-Anilino-4-phenylthiazoles and Their Inhibitory Activities on Sterol Biosynthesis” (J Pestic Sci, 2001)
≈ marks a conversion by molar mass, not a printed value.

Legend:
[1] = test system: Trichophyton mentagrophytes; assay: Antifungal activity against Trichophyton mentagrophytes; format: functional
Pyricularia oryzae = assay: Antifungal activity against Magnaporthe oryzae; format: functional, organism-based
Botrytis cinerea [2] = assay: Antifungal activity against Botryotinia fuckeliana; format: functional, organism-based
Botrytis cinerea [3] = assay: Antifungal activity against Botryotinia fuckeliana assessed as accumulation of squalene using [2-14C]acetate at 1 x 10^-5 M; format: functional
Botrytis cinerea [4] = assay: Antifungal activity against Botryotinia fuckeliana assessed as accumulation of squalene using [2-14C]acetate at 3 x 10^-5 M; format: functional
[5] = test system: Trichophyton mentagrophytes; assay: Antifungal activity against Trichophyton mentagrophytes assessed as accumulation of squalene using [2-14C]acetate at 1 x 10^-7 M; format: functional
[6] = test system: Trichophyton mentagrophytes; assay: Antifungal activity against Trichophyton mentagrophytes assessed as accumulation of squalene using [2-14C]acetate at 1 x 10^-9 M; format: functional
[7] = test system: Trichophyton mentagrophytes; assay: Antifungal activity against Trichophyton mentagrophytes assessed as accumulation of squalene using [2-14C]acetate at 1 x 10^-8 M; format: functional
Botrytis cinerea [8] = assay: Antifungal activity against Botryotinia fuckeliana assessed as accumulation of squalene using [2-14C]acetate at 1 x 10^-6 M; format: functional
Botrytis cinerea [9] = assay: Antifungal activity against Botryotinia fuckeliana assessed as accumulation of squalene using [2-14C]acetate at 1 x 10^-7 M; format: functional

| SMILES | MIC [1] | EC50 (Pyricularia oryzae) | EC50 (Botrytis cinerea [2]) | Activity (Botrytis cinerea [3]) | Activity (Botrytis cinerea [4]) | Activity [5] | Activity [6] | Activity [7] | Activity (Botrytis cinerea [8]) | Activity (Botrytis cinerea [9]) |
| --- | --- | --- | --- | --- | --- | --- | --- | --- | --- | --- |
| CC(C)Oc1ccc(Nc2nc(-c3c(Cl)cccc3Cl)cs2)cc1 | 30 µg/mL (≈ 79.1 µM) | 3 µg/mL (≈ 7.91 µM) | > 100 µg/mL | – | – | – | – | – | – | – |
| FC(F)(F)Oc1ccc(Nc2nc(-c3c(Cl)cccc3Cl)cs2)cc1 | 0.03 µg/mL (≈ 0.074 µM) | 0.3 µg/mL (≈ 0.74 µM) | 0.5 µg/mL (≈ 1.23 µM) | – | – | – | – | – | – | – |
| Clc1ccc(Nc2nc(-c3cccc(Cl)c3Cl)cs2)cc1 | 3 µg/mL (≈ 8.43 µM) | > 100 µg/mL | > 100 µg/mL | – | – | – | – | – | – | – |
| Clc1ccc(Cc2nc(-c3c(Cl)cccc3Cl)cs2)cc1 | > 100 µg/mL | > 100 µg/mL | > 100 µg/mL | 3.8% | – | – | – | – | – | – |
| Clc1ccc(Nc2nc(-c3c(Cl)cc(Cl)cc3Cl)cs2)cc1 | 0.1 µg/mL (≈ 0.256 µM) | 0.3 µg/mL (≈ 0.769 µM) | 0.05 µg/mL (≈ 0.128 µM) | – | – | – | – | – | – | – |
| Clc1ccc(Oc2nc(-c3c(Cl)cccc3Cl)cs2)cc1 | 1 µg/mL (≈ 2.8 µM) | 1 µg/mL (≈ 2.8 µM) | 0.5 µg/mL (≈ 1.4 µM) | 61.1% | 68% | – | – | – | – | – |
| Clc1ccc(Nc2nc(-c3c(Cl)cccc3Cl)cs2)c(Cl)c1 | 0.3 µg/mL (≈ 0.769 µM) | 5 µg/mL (≈ 12.8 µM) | > 100 µg/mL | – | – | – | – | – | – | – |
| CSc1ccc(Nc2nc(-c3c(Cl)cccc3Cl)cs2)cc1 | 0.1 µg/mL (≈ 0.272 µM) | 4 µg/mL (≈ 10.9 µM) | 0.3 µg/mL (≈ 0.817 µM) | – | – | – | – | – | – | – |
| CC(C)(C)c1ccc(Nc2nc(-c3c(Cl)cccc3Cl)cs2)cc1 | > 100 µg/mL | 1 µg/mL (≈ 2.65 µM) | > 100 µg/mL | – | – | – | – | – | – | – |
| Clc1ccc(Nc2nc(-c3ccc4ccccc4c3)cs2)cc1 | > 100 µg/mL | > 100 µg/mL | > 100 µg/mL | – | – | 38.7% | >35% | – | – | – |
| COc1ccc(Br)c(OC)c1-c1csc(Nc2ccc(Cl)cc2)n1 | 3 µg/mL (≈ 7.05 µM) | 0.5 µg/mL (≈ 1.17 µM) | > 100 µg/mL | – | – | – | – | – | – | – |
| Clc1ccc(Nc2nc(-c3ccc(Cl)cc3)cs2)cc1 | > 100 µg/mL | 0.3 µg/mL (≈ 0.934 µM) | > 100 µg/mL | – | 8.4% | – | – | – | – | – |
| Clc1ccc(Nc2nc(-c3c(Cl)cccc3Cl)ns2)cc1 | 0.1 µg/mL (≈ 0.28 µM) | 0.6 µg/mL (≈ 1.68 µM) | 0.2 µg/mL (≈ 0.561 µM) | – | – | – | – | – | – | – |
| CN(C)c1ccc(Nc2nc(-c3c(Cl)cccc3Cl)cs2)cc1 | 1 µg/mL (≈ 2.74 µM) | > 100 µg/mL | > 100 µg/mL | – | – | – | – | – | – | – |
| Clc1ccc(Nc2nc(-c3ccccc3Cl)cs2)cc1 | 0.3 µg/mL (≈ 0.934 µM) | 0.3 µg/mL (≈ 0.934 µM) | > 100 µg/mL | 28.8% | 46.3% | – | – | – | – | – |
| CS(=O)(=O)c1ccc(Nc2nc(-c3c(Cl)cccc3Cl)cs2)cc1 | 3 µg/mL (≈ 7.51 µM) | 3 µg/mL (≈ 7.51 µM) | > 100 µg/mL | – | – | – | – | – | – | – |
| Clc1cccc(Cl)c1-c1csc(Nc2ccc(Br)cc2)n1 | 0.03 µg/mL (≈ 0.075 µM) | 0.5 µg/mL (≈ 1.25 µM) | 0.05 µg/mL (≈ 0.125 µM) | – | – | – | – | – | – | – |
| COc1cccc(OC)c1-c1csc(Nc2ccc(Cl)cc2)n1 | 0.03 µg/mL (≈ 0.0865 µM) | 5 µg/mL (≈ 14.4 µM) | 0.2 µg/mL (≈ 0.577 µM) | 79.8% | – | 84.1% | 30.5% | 70.6% | 46.9% | 2.3% |
| Clc1ccc(Nc2nc(-c3ccccc3)cs2)cc1 | 3 µg/mL (≈ 10.5 µM) | 1 µg/mL (≈ 3.49 µM) | > 100 µg/mL | 2% | 14.3% | – | – | – | – | – |
| Fc1ccc(Nc2nc(-c3c(Cl)cccc3Cl)cs2)cc1 | 0.1 µg/mL (≈ 0.295 µM) | 3 µg/mL (≈ 8.84 µM) | 0.2 µg/mL (≈ 0.59 µM) | – | – | – | – | – | – | – |
